# From US20200038338A1, “LONG TERM DRUG DELIVERY BY TATTOO” (priority 2018, published 2020)
# Key:
# psoriatic plaques = assay: Treatment of psoriasis: methotrexate delivered to the dermal layer by tattoo machine; format: in vivo; conditions: control: 25 mg/ml methotrexate by injection once a month for 9 months
# [1] = tested on: terminal hairs of beard or scalp (alopecia); assay: Treatment of alopecia: minoxidil delivered to the dermis by tattoo machine; format: in vivo; conditions: 5 wt % minoxidil suspension in PEG 400 by tattoo to dermis, once every 2 months, after 6 months (3 sessions); versus control side with minoxidil in water to saturation; three subjects
# Procedure: A suspension of minoxidil suspension at 5 wt % is created in a PEG 400 vehicle. As a control minoxidil is added to water to saturation. The test and control agents are delivered by tattoo machine to the dermis on independent sides of the face (either beard, eyebrow, or scalp) of the same subject once every 2 months for 6 months (i.e. 3 administrations). Three different subjects were tested. The side that was treated in the beard or scalp had approximately 300% more terminal (thick, strong) hairs per unit area, after 6 months (3 sessions).
# [2] = tested on: androgenetic alopecia (hair loss); conditions: minoxidil microinjections once a month for four months; cited from earlier work
# [3] = tested on: basal cell carcinoma (BCC); assay: Treatment of basal cell carcinoma: vismodegib delivered by tattoo machine
compound,measurement,setting,value
CN(Cc1cnc2nc(N)nc(N)c2n1)c1ccc(C(=O)N[C@@H](CCC(=O)O)C(=O)O)cc1 [methotrexate],"side effects, control",psoriatic plaques,increased liver enzymes
Nc1cc(N2CCCCC2)nc(N)[n+]1[O-] [minoxidil],"more terminal (thick, strong) hairs per unit area on the treated side",[1],approximately 300%
same,side effects noted by the subjects,[2],"No side effects were noted by the subjects, besides minor localized pain"
CS(=O)(=O)c1ccc(C(=O)Nc2ccc(Cl)c(-c3ccccn3)c2)c(Cl)c1 [vismodegib],"side effects, control",[3]; control: vismodegib orally for 6 months,"muscle tremors, loss of appetite, reduction of smell and taste"
same,"BCCs resolved, control","[3]; control: vismodegib orally, first 6 months",50%
same,clearance of the BCC,"[3]; vismodegib suspension with polyethylene glycol by tattoo machine, once a week for 6 months",90%
